In ChEMBL document CHEMBL1671626, “In vitro profiling of ceftaroline against a collection of recent bacterial clinical isolates from across the United States” (2008):
Values after ≈ are worked out from the molar mass of the structure shown.

Tests used:
Type in all cases: functional
Acinetobacter [1] = assay: Antibacterial activity against imipenem-susceptible Acinetobacter assessed as susceptible isolates by CLSI M7-A7 broth microdilution method
Escherichia coli [2] = assay: Antibacterial activity against ceftazidime-nonsusceptible Escherichia coli assessed as susceptible isolates by CLSI M7-A7 broth microdilution method
Staphylococcus aureus [3] = assay: Antibacterial activity against methicillin-resistant Staphylococcus aureus assessed as resistant isolates by CLSI M7-A7 broth microdilution method
Proteus mirabilis = assay: Antibacterial activity against ceftazidime-susceptible Proteus mirabilis assessed as susceptible isolates by CLSI M7-A7 broth microdilution method
Citrobacter freundii [4] = assay: Antibacterial activity against ceftazidime-susceptible Citrobacter freundii assessed as susceptible isolates by CLSI M7-A7 broth microdilution method
Citrobacter freundii [5] = assay: Antibacterial activity against ceftazidime-susceptible Citrobacter freundii by CLSI M7-A7 broth microdilution method
Streptococcus agalactiae = assay: Antibacterial activity against erythromycin-nonsusceptible Streptococcus agalactiae by CLSI M7-A7 broth microdilution method
Staphylococcus aureus [6] = assay: Antibacterial activity against coagulase-negative and oxacillin-susceptible Staphylococcus aureus assessed as resistant isolates by CLSI M7-A7 broth microdilution method
Streptococcus pneumoniae [7] = assay: Antibacterial activity against penicillin-resistant Streptococcus pneumoniae assessed as resistant isolates by CLSI M7-A7 broth microdilution method
Escherichia coli [8] = assay: Antibacterial activity against ceftazidime-nonsusceptible Escherichia coli assessed as resistant isolates by CLSI M7-A7 broth microdilution method
Enterobacter cloacae [9] = assay: Antibacterial activity against ceftazidime-susceptible Enterobacter cloacae assessed as susceptible isolates by CLSI M7-A7 broth microdilution method
Enterobacteriaceae [10] = assay: Antibacterial activity against ceftazidime-susceptible Enterobacteriaceae assessed as resistant isolates by CLSI M7-A7 broth microdilution method
Citrobacter freundii [11] = assay: Antibacterial activity against ceftazidime-nonsusceptible Citrobacter freundii assessed as resistant isolates by CLSI M7-A7 broth microdilution method
Moraxella catarrhalis = assay: Antibacterial activity against beta lactamase-positive Moraxella catarrhalis by CLSI M7-A7 broth microdilution method
Pasteurella multocida = assay: Antibacterial activity against Pasteurella multocida by CLSI M7-A7 broth microdilution method
Klebsiella pneumoniae [12] = assay: Antibacterial activity against ceftazidime-nonsusceptible Klebsiella pneumoniae assessed as susceptible isolates by CLSI M7-A7 broth microdilution method
Streptococcus viridans [13] = assay: Antibacterial activity against penicillin-nonsusceptible Streptococcus viridans by CLSI M7-A7 broth microdilution method
Escherichia coli [14] = assay: Antibacterial activity against ceftazidime-susceptible Escherichia coli by CLSI M7-A7 broth microdilution method
Providencia sp. [15] = assay: Antibacterial activity against ceftazidime-susceptible Providencia sp. assessed as susceptible isolates by CLSI M7-A7 broth microdilution method
Citrobacter freundii [16] = assay: Antibacterial activity against ceftazidime-nonsusceptible Citrobacter freundii by CLSI M7-A7 broth microdilution method
Acinetobacter [17] = assay: Antibacterial activity against imipenem-susceptible Acinetobacter by CLSI M7-A7 broth microdilution method
Morganella morganii = assay: Antibacterial activity against ceftazidime-susceptible Morganella morganii assessed as susceptible isolates by CLSI M7-A7 broth microdilution method
Klebsiella pneumoniae [18] = assay: Antibacterial activity against ceftazidime-nonsusceptible Klebsiella pneumoniae assessed as resistant isolates by CLSI M7-A7 broth microdilution method
Streptococcus pneumoniae [19] = assay: Antibacterial activity against penicillin-resistant Streptococcus pneumoniae assessed as susceptible isolates by CLSI M7-A7 broth microdilution method
Escherichia coli [20] = assay: Antibacterial activity against ceftazidime-nonsusceptible Escherichia coli by CLSI M7-A7 broth microdilution method
Streptococcus viridans [21] = assay: Antibacterial activity against penicillin-susceptible Streptococcus viridans by CLSI M7-A7 broth microdilution method
Staphylococcus aureus [22] = assay: Antibacterial activity against coagulase-negative and oxacillin-susceptible Staphylococcus aureus by CLSI M7-A7 broth microdilution method
Haemophilus influenzae = assay: Antibacterial activity against beta lactamase-negative Haemophilus influenzae by CLSI M7-A7 broth microdilution method
Enterobacter cloacae [23] = assay: Antibacterial activity against ceftazidime-susceptible Enterobacter cloacae by CLSI M7-A7 broth microdilution method
Enterobacter cloacae [24] = assay: Antibacterial activity against ceftazidime-susceptible Enterobacter cloacae assessed as resistant isolates by CLSI M7-A7 broth microdilution method
Enterobacter cloacae [25] = assay: Antibacterial activity against ceftazidime-nonsusceptible Enterobacter cloacae assessed as resistant isolates by CLSI M7-A7 broth microdilution method
Streptococcus pyogenes = assay: Antibacterial activity against erythromycin-susceptible Streptococcus pyogenes by CLSI M7-A7 broth microdilution method
Staphylococcus aureus [26] = assay: Antibacterial activity against coagulase-negative and oxacillin-resistant Staphylococcus aureus by CLSI M7-A7 broth microdilution method
Providencia sp. [27] = assay: Antibacterial activity against ceftazidime-susceptible Providencia sp. assessed as resistant isolates by CLSI M7-A7 broth microdilution method
Acinetobacter [28] = assay: Antibacterial activity against multidrug-resistant Acinetobacter assessed as susceptible isolates by CLSI M7-A7 broth microdilution method
Staphylococcus aureus [29] = assay: Antibacterial activity against coagulase-negative and oxacillin-resistant Staphylococcus aureus assessed as susceptible isolates by CLSI M7-A7 broth microdilution method
Enterobacteriaceae [30] = assay: Antibacterial activity against ceftazidime-nonsusceptible Enterobacteriaceae by CLSI M7-A7 broth microdilution method

In the case of C[C@@H](O)[C@H]1C(=O)N2C(C(=O)O)=C(SCCNC=N)C[C@H]12 [IMIPENEM ANHYDROUS], the Activity (Acinetobacter [1]) is reported as 100%, the Activity (Escherichia coli [2]) is reported as 96.8% and the Activity (Staphylococcus aureus [3]) is reported as 13.5%. For the same molecule, the Activity (Proteus mirabilis) was 100%, the Activity (Citrobacter freundii [4]) was 100% and the MIC50 (Citrobacter freundii [5]) was 0.5 µg/mL (≈ 1.67 µM). For the same molecule, the MIC90 (Citrobacter freundii [5]) was 1 µg/mL (≈ 3.34 µM), the MIC (Streptococcus agalactiae) was ≤ 0.015 µg/mL and the MIC50 (Streptococcus agalactiae) was ≤ 0.015 µg/mL. It also gave an MIC90 (Streptococcus agalactiae) of 0.03 µg/mL (≈ 0.1 µM), an Activity (Staphylococcus aureus [6]) of 0% and an Activity (Streptococcus pneumoniae [7]) of 10.8%. It also gave an Activity (Escherichia coli [8]) of 3.2%, an Activity (Enterobacter cloacae [9]) of 100% and an Activity (Enterobacteriaceae [10]) of 0%. For the same molecule, the Activity (Citrobacter freundii [11]) was 0%, the MIC (Moraxella catarrhalis) was ≤ 0.12 µg/mL and the MIC50 (Moraxella catarrhalis) was ≤ 0.12 µg/mL. For the same molecule, the MIC90 (Moraxella catarrhalis) was ≤ 0.12 µg/mL, the MIC50 (Pasteurella multocida) was 0.25 µg/mL (≈ 0.835 µM) and the MIC90 (Pasteurella multocida) was 2 µg/mL (≈ 6.68 µM). For the same molecule, the Activity (Klebsiella pneumoniae [12]) was 80.3%, the MIC50 (Streptococcus viridans [13]) was 0.06 µg/mL (≈ 0.2 µM) and the MIC90 (Streptococcus viridans [13]) was 1 µg/mL (≈ 3.34 µM). It also gave an MIC50 (Escherichia coli [14]) of 0.12 µg/mL (≈ 0.401 µM), an MIC90 (Escherichia coli [14]) of 0.25 µg/mL (≈ 0.835 µM) and an Activity (Providencia sp. [15]) of 100%. The MIC50 (Citrobacter freundii [16]) was 0.5 µg/mL (≈ 1.67 µM), the MIC90 (Citrobacter freundii [16]) was 1 µg/mL (≈ 3.34 µM) and the MIC50 (Acinetobacter [17]) was 0.25 µg/mL (≈ 0.835 µM). The MIC90 (Acinetobacter [17]) was 0.5 µg/mL (≈ 1.67 µM), the Activity (Morganella morganii) was 100% and the Activity (Klebsiella pneumoniae [18]) was 10.6%. The Activity (Streptococcus pneumoniae [19]) was 12.5%, the MIC50 (Escherichia coli [20]) was 0.25 µg/mL (≈ 0.835 µM) and the MIC90 (Escherichia coli [20]) was 1 µg/mL (≈ 3.34 µM). For the same molecule, the MIC (Streptococcus viridans [21]) was ≤ 0.015 µg/mL, the MIC50 (Streptococcus viridans [21]) was ≤ 0.015 µg/mL and the MIC90 (Streptococcus viridans [21]) was 0.06 µg/mL (≈ 0.2 µM). The MIC (Staphylococcus aureus [22]) was ≤ 0.12 µg/mL, the MIC50 (Staphylococcus aureus [22]) was ≤ 0.12 µg/mL and the MIC90 (Staphylococcus aureus [22]) was ≤ 0.12 µg/mL. The MIC50 (Haemophilus influenzae) was 0.25 µg/mL (≈ 0.835 µM), the MIC90 (Haemophilus influenzae) was 0.5 µg/mL (≈ 1.67 µM) and the MIC50 (Enterobacter cloacae [23]) was 0.5 µg/mL (≈ 1.67 µM). The MIC90 (Enterobacter cloacae [23]) was 0.5 µg/mL (≈ 1.67 µM), the Activity (Enterobacter cloacae [24]) was 0% and the Activity (Enterobacter cloacae [25]) was 2.9%. The MIC (Streptococcus pyogenes) was ≤ 0.015 µg/mL, the MIC50 (Streptococcus pyogenes) was ≤ 0.015 µg/mL and the MIC90 (Streptococcus pyogenes) was ≤ 0.015 µg/mL. It also gave an MIC50 (Staphylococcus aureus [26]) of 0.5 µg/mL (≈ 1.67 µM), an MIC90 (Staphylococcus aureus [26]) of 16 µg/mL (≈ 53.4 µM) and an Activity (Providencia sp. [27]) of 0%. The Activity (Acinetobacter [28]) was 68.8%, the Activity (Staphylococcus aureus [29]) was 77.3% and the MIC50 (Enterobacteriaceae [30]) was 0.25 µg/mL (≈ 0.835 µM). The MIC90 (Enterobacteriaceae [30]) was 4 µg/mL (≈ 13.4 µM).

Work on CC(C)(O/N=C(\C(=O)N[C@@H]1C(=O)N2C(C(=O)[O-])=C(C[n+]3ccccc3)CS[C@H]12)c1csc(N)n1)C(=O)O [CEFTAZIDIME] yielded an Activity (Acinetobacter [1]) of 63.8%, an Activity (Escherichia coli [2]) of 0% and an Activity (Staphylococcus aureus [3]) of 54%. The Activity (Proteus mirabilis) was 100%, the Activity (Citrobacter freundii [4]) was 100% and the MIC50 (Citrobacter freundii [5]) was 0.25 µg/mL (≈ 0.457 µM). The MIC90 (Citrobacter freundii [5]) was 1 µg/mL (≈ 1.83 µM), the MIC (Streptococcus agalactiae) was ≤ 1 µg/mL and the MIC50 (Streptococcus agalactiae) was ≤ 1 µg/mL. The MIC90 (Streptococcus agalactiae) was ≤ 1 µg/mL, the Activity (Staphylococcus aureus [6]) was 0.5% and the Activity (Escherichia coli [8]) was 87.3%. It also gave an Activity (Enterobacter cloacae [9]) of 100%, an Activity (Enterobacteriaceae [10]) of 0% and an Activity (Citrobacter freundii [11]) of 97%. For the same molecule, the MIC (Moraxella catarrhalis) was ≤ 1 µg/mL, the MIC50 (Moraxella catarrhalis) was ≤ 1 µg/mL and the MIC90 (Moraxella catarrhalis) was ≤ 1 µg/mL. For the same molecule, the MIC (Pasteurella multocida) was ≤ 1 µg/mL, the MIC50 (Pasteurella multocida) was ≤ 1 µg/mL and the MIC90 (Pasteurella multocida) was ≤ 1 µg/mL. The Activity (Klebsiella pneumoniae [12]) was 0%, the MIC50 (Streptococcus viridans [13]) was 8 µg/mL (≈ 14.6 µM) and the MIC90 (Streptococcus viridans [13]) was > 32 µg/mL. For the same molecule, the MIC50 (Escherichia coli [14]) was 0.12 µg/mL (≈ 0.22 µM), the MIC90 (Escherichia coli [14]) was 0.25 µg/mL (≈ 0.457 µM) and the Activity (Providencia sp. [15]) was 100%. The MIC50 (Citrobacter freundii [16]) was > 32 µg/mL, the MIC90 (Citrobacter freundii [16]) was > 32 µg/mL and the MIC50 (Acinetobacter [17]) was 4 µg/mL (≈ 7.32 µM). For the same molecule, the MIC90 (Acinetobacter [17]) was > 32 µg/mL, the Activity (Morganella morganii) was 100% and the Activity (Klebsiella pneumoniae [18]) was 98.5%. The MIC50 (Escherichia coli [20]) was > 32 µg/mL, the MIC90 (Escherichia coli [20]) was > 32 µg/mL and the MIC (Streptococcus viridans [21]) was ≤ 1 µg/mL. The MIC50 (Streptococcus viridans [21]) was ≤ 1 µg/mL, the MIC90 (Streptococcus viridans [21]) was 4 µg/mL (≈ 7.32 µM) and the MIC50 (Staphylococcus aureus [22]) was 4 µg/mL (≈ 7.32 µM). The MIC90 (Staphylococcus aureus [22]) was 8 µg/mL (≈ 14.6 µM), the MIC50 (Haemophilus influenzae) was 0.06 µg/mL (≈ 0.11 µM) and the MIC90 (Haemophilus influenzae) was 0.12 µg/mL (≈ 0.22 µM). The MIC50 (Enterobacter cloacae [23]) was 0.25 µg/mL (≈ 0.457 µM), the MIC90 (Enterobacter cloacae [23]) was 1 µg/mL (≈ 1.83 µM) and the Activity (Enterobacter cloacae [24]) was 0%. For the same molecule, the Activity (Enterobacter cloacae [25]) was 91.4%, the MIC (Streptococcus pyogenes) was ≤ 1 µg/mL and the MIC50 (Streptococcus pyogenes) was ≤ 1 µg/mL. For the same molecule, the MIC90 (Streptococcus pyogenes) was ≤ 1 µg/mL, the MIC50 (Staphylococcus aureus [26]) was 32 µg/mL (≈ 58.5 µM) and the MIC90 (Staphylococcus aureus [26]) was > 32 µg/mL. It also gave an Activity (Providencia sp. [27]) of 0%, an Activity (Acinetobacter [28]) of 0% and an Activity (Staphylococcus aureus [29]) of 10%. For the same molecule, the MIC50 (Enterobacteriaceae [30]) was > 32 µg/mL and the MIC90 (Enterobacteriaceae [30]) was > 32 µg/mL.
